Values joined by “and” are separate entries in the source; they are usually repeats but may differ in a detail not shown here. Equal values may be shown once. Read-outs that look alike come from different tables or passages of the source. Square brackets hold non-standard residues; d marks the D form. Peptide text beside a SMILES is read from it. * marks the point of attachment. X5 = O=C(O)CN1CCN(CC(=O)O)CCN([C@H](CCC(=O)*)C(=O)O)CCN(CC(=O)O)CC1; boroPro = OB(O)[C@@H]1CCCN1*
Assays:
Format in all cases: biochemical
[1] = target: recombinant human fibroblast activation protein (FAP) (Homo sapiens (Human), UniProt Q12884); assay: In vitro assay fibroblast activation protein IC50 (Example 21)
Experimental: (§1) The purpose of this assay is to determine the IC50 of various inhibitors against recombinant human dipeptidyl peptidase IV (DPPIV), fibroblast activation protein (FAP) or prolyl oligopeptidase (PREP).
(§2) The assays are conducted in the following steps: • 1 Dissolve the compound in DMSO to a final concentration of 100 mM. From this, prepare a 1 mM stock at pH 7.5 in 50 mM Tris, 140 mM NaCl Buffer (FAP)/pH 7.5 in 25 mM Tris, 250 mM NaCl Buffer/[…]. • 2. Serial dilute (1:10) the 1 mM compound stocks prepared previously into the appropriate assay buffer (FAP: 50 mM Tris, 140 mM NaCl, pH 7.5/PREP: 25 mM Tris, 0.25 M NaCl, pH 7.5/DPPIV: 25 mM Tris, pH 8.0) to one row of a 96-well plate. • 3. […] Dilute the enzymes into their appropriate assay buffers. The final enzyme concentrations should be 0.1, 1.2, and 0.6 nM for DPPIV, FAP and PREP respectively. Add 180 μL to each well needed in columns 2-10. Column 1(A,B,C) should be prepared with 200 μl of appropriate assay buffer as control. Column 1(D,E,F,G,H) should be prepared with 20 μl of appropriate assay buffer and 180 ul enzyme as no inhibitor control. • 5. Add 20 μL of the compound of interest from the dilution plate prepared in step 2 to columns 2-10 of the assay plate where appropriate. Each sample should be tested in triplicate. Allow this to incubate for 10 minutes at room temperature, shaking the plate for the first two minutes. • 6. Add 10 μL of 20× substrate prepared in step 3 to each well and allow this to incubate for 15 minutes at room temperature, shaking the plate for the first two minutes. • 7. Read the fluorescence at λex: 380, λem: 460. (DPcore=[dAla|dSer|Gly]-[boroPro|Pro-nitrile], XXaa=alpha-amino acid)

[2] = target: recombinant human dipeptidyl peptidase IV (DPPIV) (Homo sapiens (Human), UniProt P27487); assay: In vitro assay dipeptidyl peptidase IV IC50 (Example 21)
Experimental: as §1, §2

[3] = target: recombinant human prolyl oligopeptidase (PREP) (Homo sapiens (Human), UniProt P48147); assay: In vitro assay prolyl oligopeptidase IC50 (Example 21)
Experimental: as §1, §2

recombinant human dipeptidyl peptidase IV (DPPIV), sequence (P27487 whole entry): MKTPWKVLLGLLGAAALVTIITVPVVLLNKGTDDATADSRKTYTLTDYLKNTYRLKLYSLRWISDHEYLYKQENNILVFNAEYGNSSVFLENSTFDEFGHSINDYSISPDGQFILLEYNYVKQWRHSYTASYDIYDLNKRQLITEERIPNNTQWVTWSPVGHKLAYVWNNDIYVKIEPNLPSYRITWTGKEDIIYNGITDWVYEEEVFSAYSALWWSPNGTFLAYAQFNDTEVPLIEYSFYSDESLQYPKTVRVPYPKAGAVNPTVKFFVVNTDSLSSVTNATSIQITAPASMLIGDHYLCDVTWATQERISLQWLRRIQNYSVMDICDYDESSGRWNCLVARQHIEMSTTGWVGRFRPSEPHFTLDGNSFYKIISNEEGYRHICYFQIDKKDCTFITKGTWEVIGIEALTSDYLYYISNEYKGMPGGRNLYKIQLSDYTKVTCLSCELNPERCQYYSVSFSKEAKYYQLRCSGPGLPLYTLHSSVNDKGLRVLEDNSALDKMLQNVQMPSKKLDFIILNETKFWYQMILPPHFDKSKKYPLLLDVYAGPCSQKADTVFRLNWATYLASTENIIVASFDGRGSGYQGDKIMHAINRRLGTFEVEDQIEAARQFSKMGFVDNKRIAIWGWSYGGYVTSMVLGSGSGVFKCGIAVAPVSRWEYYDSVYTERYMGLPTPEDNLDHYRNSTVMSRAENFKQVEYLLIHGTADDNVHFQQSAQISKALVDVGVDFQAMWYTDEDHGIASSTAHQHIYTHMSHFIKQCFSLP
recombinant human prolyl oligopeptidase (PREP), sequence (P48147 whole entry): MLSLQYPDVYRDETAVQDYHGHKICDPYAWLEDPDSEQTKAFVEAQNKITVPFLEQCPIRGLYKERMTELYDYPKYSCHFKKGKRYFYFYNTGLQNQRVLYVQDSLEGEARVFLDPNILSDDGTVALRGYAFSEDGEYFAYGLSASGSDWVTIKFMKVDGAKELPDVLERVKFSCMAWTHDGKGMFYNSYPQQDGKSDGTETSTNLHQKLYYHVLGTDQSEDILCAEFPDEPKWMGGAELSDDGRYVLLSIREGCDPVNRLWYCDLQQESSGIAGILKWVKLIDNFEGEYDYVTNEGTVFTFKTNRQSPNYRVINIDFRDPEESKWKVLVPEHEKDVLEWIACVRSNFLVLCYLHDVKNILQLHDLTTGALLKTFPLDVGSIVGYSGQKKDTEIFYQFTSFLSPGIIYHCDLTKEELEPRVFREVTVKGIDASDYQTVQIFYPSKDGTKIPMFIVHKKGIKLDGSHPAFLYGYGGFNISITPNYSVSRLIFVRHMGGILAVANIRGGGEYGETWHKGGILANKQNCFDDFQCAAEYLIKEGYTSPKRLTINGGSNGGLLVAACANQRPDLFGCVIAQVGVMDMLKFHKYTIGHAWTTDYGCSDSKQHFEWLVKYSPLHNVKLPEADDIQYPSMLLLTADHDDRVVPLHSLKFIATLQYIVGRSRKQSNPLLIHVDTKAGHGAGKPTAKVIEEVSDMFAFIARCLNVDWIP
recombinant human fibroblast activation protein (FAP), sequence (Q12884 whole entry): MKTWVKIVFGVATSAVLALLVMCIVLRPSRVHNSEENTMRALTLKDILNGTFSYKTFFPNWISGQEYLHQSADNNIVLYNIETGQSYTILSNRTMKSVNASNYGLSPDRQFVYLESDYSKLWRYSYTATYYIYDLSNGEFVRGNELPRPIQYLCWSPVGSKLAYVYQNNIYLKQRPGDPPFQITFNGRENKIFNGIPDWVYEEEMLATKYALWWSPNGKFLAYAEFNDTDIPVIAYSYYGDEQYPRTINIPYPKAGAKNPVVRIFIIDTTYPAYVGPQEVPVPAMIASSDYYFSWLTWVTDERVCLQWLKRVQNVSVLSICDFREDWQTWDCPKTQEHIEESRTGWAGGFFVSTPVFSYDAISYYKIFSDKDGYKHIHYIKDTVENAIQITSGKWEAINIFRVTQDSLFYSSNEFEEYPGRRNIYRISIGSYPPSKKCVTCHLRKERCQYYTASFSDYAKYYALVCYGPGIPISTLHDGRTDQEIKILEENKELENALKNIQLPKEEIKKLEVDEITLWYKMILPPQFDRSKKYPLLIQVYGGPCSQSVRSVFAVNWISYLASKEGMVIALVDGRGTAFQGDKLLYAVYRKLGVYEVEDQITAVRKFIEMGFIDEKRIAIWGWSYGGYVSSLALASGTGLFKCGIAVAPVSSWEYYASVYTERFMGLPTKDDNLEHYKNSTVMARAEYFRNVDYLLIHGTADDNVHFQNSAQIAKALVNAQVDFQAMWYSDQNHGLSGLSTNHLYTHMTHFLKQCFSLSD

| SMILES | IC50 [1] | IC50 [2] | IC50 [3] | IC50 ([1]; Z-Gly-Pro-AMC, 1.2 nM enzyme) | IC50 ([2]; Gly-Pro-AMC, 0.1 nM enzyme) | IC50 ([3]; Z-Gly-Pro-AMC, 0.6 nM enzyme) |
| --- | --- | --- | --- | --- | --- | --- |
| C[C@@H](NC(=O)c1ccc(NN)nc1)C(=O)N1CCC[C@H]1B(O)O [compound 3860] | 170 nM | > 100000 nM | 9800 nM | – | – | – |
| C[C@@H](NC(=O)c1ccc(NNC(=O)CNC(=O)CN2CCN3CCN4CCN(CC2)CC(=O)[O][Ga]([O]C(=O)C3)[O]C(=O)C4)cc1)C(=O)N1CCC[C@H]1B(O)O [6487GA] | 20.8 nM | – | 1200 nM | – | – | – |
| C[C@@H](NC(=O)c1ccc(NC(=O)CN2CCN3CCN4CCN(CC2)CC(=O)[O][Lu]([O]C(=O)C3)[O]C(=O)C4)cc1)C(=O)N1CCC[C@H]1B(O)O [6572LU] | 9.5 nM | – | 891 nM | – | – | – |
| C[C@@H](NC(=O)c1ccc(NNC(=O)CCCNC(=O)CN2CCN3CCN4CCN(CC2)CC(=O)[O][Ga]([O]C(=O)C3)[O]C(=O)C4)nc1)C(=O)N1CCC[C@H]1B(O)O [6489 GA] | 39 nM | > 100000 nM | 3400 nM | – | – | – |
| C[C@@H](NC(=O)c1ccc(NC(=O)CN2CCN3CCN4CCN(CC2)CC(=O)[O][Ga]([O]C(=O)C3)[O]C(=O)C4)cc1)C(=O)N1CCC[C@H]1B(O)O [6572GA] | 25 nM | – | 234 nM | – | – | – |
| C[C@@H](NC(=O)c1ccc(CNC(=O)CN2CCN3CCN4CCN(CC2)CC(=O)[O][Ga]([O]C(=O)C3)[O]C(=O)C4)nc1)C(=O)N1CCC[C@H]1B(O)O [6556GA] | 32 nM | – | 248 nM | – | – | – |
| C[C@@H](NC(=O)[C@H]1CC[C@H](CNC(=O)CN2CCN3CCN4CCN(CC2)CC(=O)[O][Ga]([O]C(=O)C3)[O]C(=O)C4)CC1)C(=O)N1CCC[C@H]1B(O)O [6952 GA] | – | – | – | 87 nM | 80000 nM | 50000 nM |
| C[C@@H](NC(=O)c1ccc(NNC(=O)CCCCCNC(=O)CN2CCN3CCN4CCN(CC2)CC(=O)[O][Ga]([O]OC(=O)C3)[O]C(=O)C4)cc1)C(=O)N1CCC[C@H]1B(O)O [6486 GA] | 81 nM | > 100000 nM | 4700 nM | – | – | – |
| C[C@@H](NC(=O)c1ccc(NNC(=O)CCCCCNC(=O)CN2CCN3CCN4CCN(CC2)CC(=O)[O][Lu]([CH2]C(=O)C3)[O]C(=O)C4)nc1)C(=O)N1CCC[C@H]1B(O)O [6958LU] | 1.1 nM | – | 155 nM | – | – | – |
| CC(C)[C@H](NC(=O)CNC(=O)CNC(=O)CNC(=O)CC[C@H](C(=O)O)N1CCN(CC(=O)O)CCN(CC(=O)O)CCN(CC(=O)O)CC1)C(=O)N[C@H](C)C(=O)N1CCC[C@H]1B(O)O [6808D] (X5-GGGV[dA]-boroPro) | – | – | – | 11.5 nM | – | 11000 nM |
| C[C@@H](NC(=O)c1ccc(NNC(=O)CCCCC[N+]2=C(/C=C/C3=C(Oc4ccc(S(=O)(=O)O)cc4)C(=C/C=C4/N(CCCCS(=O)(=O)O)c5ccc(S(=O)(=O)O)cc5C4(C)C)/CCC3)C(C)(C)c3cc(S(=O)(=O)O)ccc32)cc1)C(=O)N1CCC[C@H]1B(O)O [4613 C] | 1.7 nM | – | 610 nM | – | – | – |
| C[C@@H](NC(=O)c1ccc(NNC(=O)CCCCC[N+]2=C(/C=C/C3=C(Oc4ccc(S(=O)(=O)O)cc4)C(=C/C=C4/N(CCCCS(=O)(=O)O)c5ccc(S(=O)(=O)O)cc5C4(C)C)/CCC3)C(C)(C)c3cc(S(=O)(=O)O)ccc32)nc1)C(=O)N1CCC[C@H]1B(O)O [4613 B] | 8.8 nM and 10 nM | > 100000 nM | 390 nM | – | – | – |
| C[C@@H](NC(=O)c1ccc(CNC(=O)CN2CCN3CCN4CCN(CC2)CC(=O)[O][Lu]([O]C(=O)C3)[O]C(=O)C4)nc1)C(=O)N1CCC[C@H]1B(O)O [6556LU] | 2.9 nM | – | 895 nM | – | – | – |
| CC(C)[C@H](NC(=O)CNC(=O)CC[C@@H]1C(=O)[O][Lu]23[O]C(=O)CN4CCN(CCN1CCN(CC4)CC(=O)[O]2)CC(=O)[O]3)C(=O)N[C@H](C)C(=O)N1CCC[C@H]1B(O)O [6795DLU] | – | – | – | 60 nM | > 100000 nM | 10000 nM |

From US20240207292A1, “BORONIC ACID COMPOUNDS, COMPOSITIONS AND METHODS” (Trustees of Tufts College, priority 2021, published 2024)
